Measured values from US20160047819A1, “METHOD FOR DIAGNOSING VAGINAL INFECTIONS” (priority 2013, published 2016).

Test system: microbial proteins in vaginal fluid
Assay: MS/MS proteomic analysis of vaginal fluid pools before and after rifaximin/placebo treatment: microbial proteins
Type: in vivo
Experimental: Proteomic analysis was performed on 9 pools of vaginal isolates, grouped according to the status of the BV infection: • H pool (from 41 healthy women); BV pool (from 39 BV-affected women); • A-R pool (from 2 women who were in remission after rifaximin treatment-group A); • A-N pool (from 8 women who were not in remission after rifaximin treatment-group A); • B-R pool (from 5 women who were in remission after rifaximin treatment-group B); • B-N pool (from 5 women who were not in remission after rifaximin treatment-group B); • C-R pool (from 4 women who were in remission after rifaximin treatment-group C); • C-N (from 5 women who were not in remission after rifaximin treatment-group C); • D-N (from 10 women who were not in remission after placebo treatment-group D). Scheme of the vaginal fluids collected for testing the diagnostic method is represented in FIG. 1.
In these figures are reported the peptides in the fractionated pools of healthy women, women affected by BV and peptides of women treated with rifaximin. The treatment with rifaximin was at dosage of 100 mg/day for 5 days; (remission, A-R; no remission, A-N), 25 mg/5 days (remission, B-R; no remission, B-N), 100 mg/2 days (remission, C-R; no remission, C-N), and placebo for 5 days (D-N). Two types of comparisons were carried out: (i) between fractionated pools of proteins from vaginal fluid of healthy women (HF) versus fractionated pool of proteins from vaginal fluid of women affected by bacterial vaginosis (BVF); (ii) between whole pools of proteins from vaginal fluid of women affected by BV treated by administering different doses of rifaximin or placebo before (BV) and after (A-R, A-N, B-R, B-N, C-R, C-N, D-N) treatment. Fractioned pools of proteins are obtained, e.g., by separating the proteins by separation on membrane filtration with different membrane porosity, prior to MS/MS analysis.
Nine volumes of acetone: HCl (10:1) were added to the supernatant of the vaginal rinsing and proteins were precipitated by centrifuging at 12000 g for 10 min. The protein pellet was dissolved in 1 mL of 70% ethanol and the sample was spun at 12000 g for 10 min. One mL of acetone was added and the proteins were further precipitated by centrifugation at 12000 g for 5 min. After removing supernatant, pellet was dried by SpeedVac concentrator (Thermo Savant ISS110, Thermo Fisher Scientific, Waltham, Mass.) and then stored at −20° C.
Protein extract was quantified using the 2-D Quant Kit (GE Healthcare, Uppsala, Sweden) according to the manufacturer's instructions.
Patients who were diagnosed for BV at the study visit V1 were included in a multicentre, double-blind, randomised, placebo-controlled study (EudraCT: 2009-011826-32), that was performed to compare the efficacy of different doses of rifaximin vaginal tablets versus placebo for the treatment of BV. The patients underwent a randomisation visit and were distributed into 4 treatment groups: group A received 100 mg rifaximin vaginal tablet once daily for 5 days (n=10), group B received 25 mg rifaximin vaginal tablet once daily for 5 days (n=10), group C received 100 mg rifaximin vaginal tablet once daily for the first 2 days and placebo vaginal tablet for the remaining 3 days (n=9), group D received placebo vaginal tablet once daily for 5 days (n=10). Study medication was administered intra-vaginally at bedtime. After 7 to 10 days from the end of the therapy a follow-up visit (V3) was performed. Remission was evaluated at V3 according to Amsel's criteria (<3) and Gram stain Nugent score (≦3) (Table 1).
Standardized vaginal rinsings with 2 mL of saline were collected for analysis at V1 and V3 by flushing and re-aspirating the fluid through a 22 Gauge needle in the left, central and right upper vaginal vaults. The vaginal rinsings were subsequently stored at −80° C. until use.
MS/MS analysis was carried out for H and BV pools and for the whole BV, A-R, A-N, B-R, B-N, C-R, C-N and D-N pools containing 50 μg of protein each. […]

[1] = up-regulated in all pools (rifaximin and placebo) vs BV

For CO[C@H]1/C=C/O[C@@]2(C)Oc3c(C)c(O)c4c(O)c(c5c(nc6cc(C)ccn65)c4c3C2=O)NC(=O)/C(C)=C\C=C\[C@H](C)[C@H](O)[C@@H](C)[C@@H](O)[C@@H](C)[C@H](OC(C)=O)[C@@H]1C [rifaximin], the “fold change of Phosphoglycerate kinase from L. gasseri” value (A-R pool, over-expressed in A-N, B-R, C-R and D-N pools) was −22.1 fold, the “expression change of Pyruvate kinase from L. delbrueckii subsp. bulgaricus” value (affected only in A-R pool) was 1.5 ratio and the “expression change of Triosephosphate isomerase from L. delbrueckii subsp. bulgaricus” value (affected only in B-N pool) was 2.4 ratio. For the same compound, the “median expression change of trigger factor from L. brevis” value (down-regulated in all pools after rifaximin treatment) was −2.5 ratio, the “Ratio X/H Ribosome-recycling factor OS = Bifidobacterium longum subsp. infantis (B7GQS1)” value (pool A-N after treatment) was −1.2 and the “Ratio X/H Trigger factor OS = Lactobacillus brevis (Q03QN6)” value (pool A-N after treatment) was −2.4. The “Ratio X/H Triosephosphate isomerase OS = Lactobacillus delbrueckii subsp. bulgaricus (Q1GB25)” value (pool A-N after treatment) was −1.2, the “Ratio X/H UPF0082 protein SAB0618 OS = Staphylococcus aureus (Q2YSR2)” value (pool A-N after treatment) was 5.6 and the “Ratio X/H Uncharacterized membrane protein YAL018C OS = Saccharomyces cerevisiae (P31379)” value (pool A-N after treatment) was 2.0. The “Ratio X/H Uncharacterized protein yphG OS = Escherichia coli (P76585)” value (pool A-N after treatment) was −4.3, the “Ratio X/H Ribosome-recycling factor OS = Bifidobacterium longum subsp. infantis (B7GQS1)” value (pool A-R after treatment) was −4.5 and the “Ratio X/H Trigger factor OS = Lactobacillus brevis (Q03QN6)” value (pool A-R after treatment) was −3.8. The “Ratio X/H Triosephosphate isomerase OS = Lactobacillus delbrueckii subsp. bulgaricus (Q1GB25)” value (pool A-R after treatment) was −1.3, the “Ratio X/H UPF0082 protein SAB0618 OS = Staphylococcus aureus (Q2YSR2)” value (pool A-R after treatment) was 9.3 and the “Ratio X/H Uncharacterized membrane protein YAL018C OS = Saccharomyces cerevisiae (P31379)” value (pool A-R after treatment) was 1.1. The “Ratio X/H Uncharacterized protein yphG OS = Escherichia coli (P76585)” value (pool A-R after treatment) was 1.1, the “Ratio X/H Ribosome-recycling factor OS = Bifidobacterium longum subsp. infantis (B7GQS1)” value (pool B-N after treatment) was −1.1 and the “Ratio X/H Trigger factor OS = Lactobacillus brevis (Q03QN6)” value (pool B-N after treatment) was −2.1. The “Ratio X/H Triosephosphate isomerase OS = Lactobacillus delbrueckii subsp. bulgaricus (Q1GB25)” value (pool B-N after treatment) was 2.4, the “Ratio X/H UPF0082 protein SAB0618 OS = Staphylococcus aureus (Q2YSR2)” value (pool B-N after treatment) was 9.2 and the “Ratio X/H Uncharacterized membrane protein YAL018C OS = Saccharomyces cerevisiae (P31379)” value (pool B-N after treatment) was 2.0. The “Ratio X/H Uncharacterized protein yphG OS = Escherichia coli (P76585)” value (pool B-N after treatment) was −1.1, the “Ratio X/H Ribosome-recycling factor OS = Bifidobacterium longum subsp. infantis (B7GQS1)” value (pool B-R after treatment) was −2.4 and the “Ratio X/H Trigger factor OS = Lactobacillus brevis (Q03QN6)” value (pool B-R after treatment) was −2.2. For the same compound, the “Ratio X/H Triosephosphate isomerase OS = Lactobacillus delbrueckii subsp. bulgaricus (Q1GB25)” value (pool B-R after treatment) was −1.2, the “Ratio X/H UPF0082 protein SAB0618 OS = Staphylococcus aureus (Q2YSR2)” value (pool B-R after treatment) was 10.5 and the “Ratio X/H Uncharacterized membrane protein YAL018C OS = Saccharomyces cerevisiae (P31379)” value (pool B-R after treatment) was 2.9. The “Ratio X/H Uncharacterized protein yphG OS = Escherichia coli (P76585)” value (pool B-R after treatment) was 1.1, the “Ratio X/H Ribosome-recycling factor OS = Bifidobacterium longum subsp. infantis (B7GQS1)” value (pool C-N after treatment) was 1.0 and the “Ratio X/H Trigger factor OS = Lactobacillus brevis (Q03QN6)” value (pool C-N after treatment) was −3.2. The “Ratio X/H Triosephosphate isomerase OS = Lactobacillus delbrueckii subsp. bulgaricus (Q1GB25)” value (pool C-N after treatment) was −1.3, the “Ratio X/H UPF0082 protein SAB0618 OS = Staphylococcus aureus (Q2YSR2)” value (pool C-N after treatment) was 5.9 and the “Ratio X/H Uncharacterized membrane protein YAL018C OS = Saccharomyces cerevisiae (P31379)” value (pool C-N after treatment) was 4.2. For the same compound, the “Ratio X/H Uncharacterized protein yphG OS = Escherichia coli (P76585)” value (pool C-N after treatment) was −1.1, the “Ratio X/H Ribosome-recycling factor OS = Bifidobacterium longum subsp. infantis (B7GQS1)” value (pool C-R after treatment) was −2.8 and the “Ratio X/H Trigger factor OS = Lactobacillus brevis (Q03QN6)” value (pool C-R after treatment) was −2.7. The “Ratio X/H Triosephosphate isomerase OS = Lactobacillus delbrueckii subsp. bulgaricus (Q1GB25)” value (pool C-R after treatment) was −1.4, the “Ratio X/H UPF0082 protein SAB0618 OS = Staphylococcus aureus (Q2YSR2)” value (pool C-R after treatment) was 8.9 and the “Ratio X/H Uncharacterized membrane protein YAL018C OS = Saccharomyces cerevisiae (P31379)” value (pool C-R after treatment) was −1.6. For the same compound, the “Ratio X/H Uncharacterized protein yphG OS = Escherichia coli (P76585)” value (pool C-R after treatment) was 1.0, the “median down-regulation of Malate dehydrogenase from S. cerevisiae” value (pools after treatment vs BV) was −2.3 fold and the “median expression change of enolases from L. acidophilus, L. delbrueckii subsp. bulgaricus, L. gasseri” value (trend of down-regulation in response to antibiotic administration) was −2.7 ratio. For the same compound, the “median expression change of Phosphoglycerate kinase from U. parvum” value [1] was 5.1 ratio and the “median expression change of UPF0082 protein SAB0618 from S. aureus” value [1] was 8.9 ratio.
